Reference: patent publication US6281248A, “Composition for treating asthma” (priority 2000, dated 2001)
One block for each compound: values may come before it.

What was measured:
[1] = Desmethylsertraline pharmacokinetics, day 1 to day 14; format: in vivo
[2] = system: plasma protein binding of propranolol; assay: Plasma protein binding of propranolol; format: in vitro ADME; details: sertraline up to 300 ng/mL, desmethylsertraline up to 200 ng/mL
[3] = Metabolism; details: in vivo
[4] = system: plasma protein binding of warfarin; assay: Plasma protein binding of warfarin; format: in vitro ADME; details: sertraline up to 300 ng/mL, desmethylsertraline up to 200 ng/mL
[5] = In vivo pharmacological testing of N-demethylsertraline
[6] = In vitro biochemical testing of N-demethylsertraline
[7] = Plasma clearance in elderly patients
[8] = clinical; details: human, in vivo
[9] = clinical; details: human, in vivo; remark: listed apart in the source
[10] = single dose, with vs without food
[11] = In vitro protein binding with radiolabeled 3H-sertraline; format: in vitro ADME; details: serum, 20 to 500 ng/mL, read-out: binding to serum proteins (converted)
[12] = system: bacteria; assay: Bacterial mutation assay; format: cell-based; details: with or without metabolic activation
[13] = not given; remark: listed apart in the source
[14] = Electrocardiograms of patients in double-blind trials; format: in vivo, human; details: 774 patients
[15] = system: mouse lymphoma; assay: Mouse lymphoma mutation assay; format: cell-based; details: with or without metabolic activation
[16] = system: beta-adrenergic blocking ability of atenolol; assay: Interaction with atenolol in healthy male subjects; format: in vivo, human; details: 100 mg
[17] = clinical; details: human, in vivo, mean half-life
[18] = system: dopamine neuronal reuptake; assay: In vitro neuronal dopamine reuptake; details: animals
[19] = not given; remark: listed apart in the source
[20] = Solubility of the present invention; format: physicochemical
[21] = clinical; details: human, plasma

increase in AUC (0-24 hour) between day 1 and day 14 ([1]; day 1 to day 14): 5-9 fold
increase in Cmax between day 1 and day 14 ([1]; day 1 to day 14): 5-9 fold
increase in Cmin between day 1 and day 14 ([1]; day 1 to day 14): 5-9 fold
time and dose dependence of AUC (0-24 hour), Cmax, and Cmin ([1]; in vivo): time-related, dose dependent increases
alteration of plasma protein binding of propranolol [2]: did not alter
alteration of plasma protein binding of warfarin [4]: did not alter
clearance in older males ([7]; older males): decreased clearance
SMILES: N[C@H]1CC[C@@H](c2ccc(Cl)c(Cl)c2)c2ccccc21 [N-demethylsertraline]
metabolic pathway [3]: oxidative deamination and subsequent reduction, hydroxylation, and glucuronide conjugation
activity in in vivo pharmacological testing relative to sertraline [5]: substantially less active than sertraline
activity in in vitro biochemical testing relative to sertraline [6]: substantially less active than sertraline

SMILES: CN[C@H]1CC[C@@H](c2ccc(Cl)c(Cl)c2)c2ccccc21.Cl [sertraline, (1S-cis)-4-(3,4-dichlorophenyl)-1,2,3,4-tetrahydro-N-methyl-1-naphthalenamine hydrochloride]
half-life [8]: 27.2 h
dose excreted at 216 h [9]: 12 to 14%
unchanged sertraline in the urine: not detectable
AUC with food [10]: slightly increased
Cmax increase with food [10]: 25%
fraction unbound [11]: 0.02
first pass metabolism [3]: extensive first pass metabolism
metabolic pathway [3]: oxidative deamination and subsequent reduction, hydroxylation, and glucuronide conjugation
principal initial pathway of metabolism [3]: N-demethylation
genotoxic effects, bacterial mutation assay [12]: no genotoxic effects
time to steady-state plasma levels ([13]; once-daily dosing, based on half-life): approximately one
Cmax dose proportionality ([13]; single dose, 50 to 200 mg): proportional to dose
ECG abnormalities [14]: not associated with the development of significant ECG abnormalities
genotoxic effects, mouse lymphoma mutation assay [15]: no genotoxic effects
effect on the beta-adrenergic blocking ability of atenolol [16]: no effect
half-life [17]: 26.2 h
effects on dopamine neuronal reuptake [18]: only very weak effects
mean half-life ([19]; human, in vivo): 27.8 h
gender associated differences ([19]; pediatric patients, males and females): No gender associated differences were observed
solubility in ethanol ([20]; ethanol): sparing soluble
solubility in isopropyl alcohol ([20]; isopropyl alcohol): slightly soluble
solubility in water ([20]; water): slightly soluble
half-life [21]: ~26 h
plasma clearance lower than in younger individuals ([7]; elderly, 100 mg/day for 14 days, vs 25 to 32 y.o.): approximately 40%
